According to patent US10435399B2, “HDAC6 inhibitory heterocyclic compound” (TAKEDA PHARMACEUTICAL COMPANY LIMITED, priority 2017, dated 2019):

target: T1, HDAC6 enzyme (Homo sapiens, UniProt Q9UBN7); experiment: HDAC6 enzyme inhibitory activity (HDAC-Glo I/II Assay kit); type: biochemical; settings: 10 μM; wells without enzyme = 100% inhibition; read-out: HDAC6 inhibitory rate (%) (10 μM)
T1 construct: transducing full length HDAC6 gene into Sf-9 insect cells; GST; purchased SignalChem; host or cells: Sf-9 insect cells
T1 sequence (Q9UBN7 1-1215): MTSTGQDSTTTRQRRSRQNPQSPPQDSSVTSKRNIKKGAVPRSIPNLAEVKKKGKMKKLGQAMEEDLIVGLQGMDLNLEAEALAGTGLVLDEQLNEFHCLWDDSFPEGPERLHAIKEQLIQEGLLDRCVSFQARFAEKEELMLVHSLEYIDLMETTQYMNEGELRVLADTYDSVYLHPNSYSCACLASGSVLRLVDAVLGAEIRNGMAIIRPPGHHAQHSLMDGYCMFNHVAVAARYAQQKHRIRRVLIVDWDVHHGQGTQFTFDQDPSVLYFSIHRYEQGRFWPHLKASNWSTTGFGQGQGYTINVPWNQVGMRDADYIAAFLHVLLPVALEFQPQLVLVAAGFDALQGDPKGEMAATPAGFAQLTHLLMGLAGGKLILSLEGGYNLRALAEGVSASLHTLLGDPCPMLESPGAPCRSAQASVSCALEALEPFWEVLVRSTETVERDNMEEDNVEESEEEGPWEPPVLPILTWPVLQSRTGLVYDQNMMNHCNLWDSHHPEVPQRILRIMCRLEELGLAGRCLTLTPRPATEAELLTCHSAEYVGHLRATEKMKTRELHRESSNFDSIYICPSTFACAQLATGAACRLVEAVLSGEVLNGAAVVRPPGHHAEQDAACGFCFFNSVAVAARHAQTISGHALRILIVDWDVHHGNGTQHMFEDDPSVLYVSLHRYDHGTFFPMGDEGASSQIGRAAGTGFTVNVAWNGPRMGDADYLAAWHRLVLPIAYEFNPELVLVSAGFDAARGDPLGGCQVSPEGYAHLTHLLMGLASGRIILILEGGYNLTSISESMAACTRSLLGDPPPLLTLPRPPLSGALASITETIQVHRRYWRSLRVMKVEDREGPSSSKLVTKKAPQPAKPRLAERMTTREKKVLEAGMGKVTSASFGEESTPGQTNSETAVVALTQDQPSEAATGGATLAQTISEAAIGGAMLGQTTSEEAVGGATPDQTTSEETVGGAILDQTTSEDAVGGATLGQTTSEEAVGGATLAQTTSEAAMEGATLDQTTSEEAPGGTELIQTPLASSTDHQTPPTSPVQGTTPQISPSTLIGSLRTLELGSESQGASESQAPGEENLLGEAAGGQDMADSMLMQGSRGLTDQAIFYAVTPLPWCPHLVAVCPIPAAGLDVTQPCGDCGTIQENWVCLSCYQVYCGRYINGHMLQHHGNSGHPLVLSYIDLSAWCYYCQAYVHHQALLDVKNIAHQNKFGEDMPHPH
Outline: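 Inhibition is calculated as relative activity, taking luminescence in enzyme-free wells as complete inhibition. The enzyme, full-length and GST-purified after Sf-9 expression, was exposed to compound for 60 min at room temperature before a 20 min HDAC-Glo reaction.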

SMILES | inhibition at 10 µM [%]
Cn1cc(-c2cccc3ccnn23)c(N2Cc3ccc(-c4nnc(C(F)F)o4)cc3C2=O)n1 [Example 481, 6-(5-(difluoro-methyl)-1,3,4-oxadiazol-2-yl)-2-(1-methyl-4-(pyrazolo[1,5-a]pyridin-7-yl)-1H-pyrazol-3-yl)isoindolin-1-one] | 98
O=C1c2cc(-c3nnc(C(F)F)o3)ccc2CN1c1ccc(F)cc1-n1cc(Br)cn1 [Example 482, 2-(2-(4-bromo-1H-pyrazol-1-yl)-4-fluoro-phenyl)-6-(5-(difluoro-methyl)-1,3,4-oxadiazol-2-yl) isoindolin-1-one] | 100
O=C1c2cc(-c3nnc(C(F)F)o3)ccc2CN1c1ccc(OC(F)(F)F)cc1Br [Example 483, 2-(2-bromo-4-(trifluoro-methoxy)phenyl)-6-(5-(difluoro-methyl)-1,3,4-oxadiazol-2-yl) isoindolin-1-one] | 91
COc1ccc(N2Cc3ccc(-c4nnc(C(F)F)o4)cc3C2=O)c(-c2ccccc2)c1 [Example 484, 6-(5-(difluoro-methyl)-1,3,4-oxadiazol-2-yl)-2-(5-methoxy-biphenyl-2-yl) isoindolin-1-one] | 100
O=C1c2cc(-c3nnc(C(F)F)o3)ccc2CN1c1ccc(OC(F)(F)F)cc1-c1ccccc1 [Example 485, 6-(5-(difluoro-methyl)-1,3,4-oxadiazol-2-yl)-2-(5-(trifluoro-methoxy)biphenyl-2-yl) isoindolin-1-one] | 100
O=C1c2cc(-c3nnc(C(F)F)o3)ccc2CN1c1ccc(F)cc1-n1cc(C2CC2)cn1 [Example 486, 2-(2-(4-cyclo-propyl-1H-pyrazol-1-yl)-4-fluorophenyl)-6-(5-(difluoro-methyl)-1,3,4-oxadiazol-2-yl) isoindolin-1-one] | 100
O=C1c2cc(-c3nnc(C(F)F)o3)ccc2CN1c1ccccc1Cc1ccccc1 [Example 487, 2-(2-benzyl-phenyl)-6-(5-(difluoro-methyl)-1,3,4-oxadiazol-2-yl) isoindolin-1-one] | 99
CCc1cnn(-c2cc(F)ccc2N2Cc3ccc(-c4nnc(C(F)F)o4)cc3C2=O)c1 [Example 488, 6-(5-(difluoro-methyl)-1,3,4-oxadiazol-2-yl)-2-(2-(4-ethyl-1H-pyrazol-1-yl)-4-fluoro-phenyl) isoindolin-1-one] | 100
O=C1c2cc(-c3nnc(C(F)F)o3)ccc2CN1N1CCCCC1c1ccccc1 (stereo not shown) [Example 490, 6-(5-(difluoro-methyl)-1,3,4-oxadiazol-2-yl)-2-(2-phenyl-piperidin-1-yl) isoindolin-1-one] | 98
O=C1c2cc(-c3nnc(C(F)F)o3)ccc2CN1N1CCCC1c1ccccc1 (stereo not shown) [Example 491, 6-(5-(difluoro-methyl)-1,3,4-oxadiazol-2-yl)-2-(2-phenyl-pyrrolidin-1-yl) isoindolin-1-one] | 99
Cn1cc(N2Cc3ccc(-c4nnc(C(F)F)o4)cc3C2=O)c(Br)n1 [Example 492, 2-(3-bromo-1-methyl-1H-pyrazol-4-yl)-6-(5-(difluoro-methyl)-1,3,4-oxadiazol-2-yl) isoindolin-1-one] | 91
Cn1cc(N2Cc3ccc(-c4nnc(C(F)F)o4)cc3C2=O)c(-c2ccccc2)n1 [Example 493, 6-(5-(difluoro-methyl)-1,3,4-oxadiazol-2-yl)-2-(1-methyl-3-phenyl-1H-pyrazol-4-yl) isoindolin-1-one] | 99
COC(=O)N1CC[C@@H](N2Cc3ncc(-c4nnc(C(F)F)o4)cc3C2=O)[C@H](c2ccc(F)cc2)C1 [Example 494, methyl (3R,4R)-4-(3-(5-(difluoro-methyl)-1,3,4-oxadiazol-2-yl)-5-oxo-5,7-dihydro-6H-pyrrolo[3,4-b]pyridin-6-yl)-3-(4-fluoro-phenyl) piperidine-1-carboxylate] | 100
N[C@@H]1CCCC(F)(F)[C@H]1N1Cc2ncc(-c3nnc(C(F)F)o3)cc2C1=O [Example 495, 6-((1S,6R)-6-amino-2,2-difluorocyclo-hexyl)-3-(5-(difluoro-methyl)-1,3,4-oxadiazol-2-yl)-6,7-dihydro-5H-pyrrolo [3,4-b] pyridin-5-one] | 89
CC(C)(C)OC(=O)N[C@@H]1CCCC(F)(F)[C@H]1N1Cc2ncc(-c3nnc(C(F)F)o3)cc2C1=O [Example 496, tert-butyl ((1R,2S)-2-(3-(5-(difluoro-methyl)-1,3,4-oxadiazol-2-yl)-5-oxo-5,7-dihydro-6H-pyrrolo[3,4-b]pyridin-6-yl)-3,3-difluoro-cyclohexyl) carbamate] | 100
O=C1c2cc(-c3nnc(C(F)F)o3)cnc2CN1[C@H]1[C@H](NC(=O)C(F)(F)C(F)(F)F)CCCC1(F)F [Example 497, N-((1R,2S)-2-(3-(5-(difluoro-methyl)-1,3,4-oxadiazol-2-yl)-5-oxo-5,7-dihydro-6H-pyrrolo[3,4-b]pyridin-6-yl)-3,3-difluoro-cyclohexyl)-2,2,3,3,3-pentafluoro-propanamide] | 101
O=C(C1CC1)N1CC[C@@H](N2Cc3ncc(-c4nnc(C(F)F)o4)cc3C2=O)[C@H](c2ccc(F)cc2)C1 [Example 498, 6-((3R,4R)-1-(cyclopropyl-carbonyl)-3-(4-fluorophenyl)piperidin-4-yl)-3-(5-(difluoro-methyl)-1,3,4-oxadiazol-2-yl)-6,7-dihydro-5H-pyrrolo [3,4-b]pyridin-5-one] | 100
COC(=O)N1CC[C@@H](N2Cc3ncc(-c4nnc(C(F)F)o4)cc3C2=O)[C@H](c2ccc(F)c(F)c2)C1 [Example 499, methyl (3R,4R)-4-(3-(5-(difluoro-methyl)-1,3,4-oxadiazol-2-yl)-5-oxo-5,7-dihydro-6H-pyrrolo[3,4-b]pyridin-6-yl)-3-(3,4-difluoro-phenyl) piperidine-1-carboxylate] | 99
CC(F)(F)C(=O)N[C@@H]1CCCC(F)(F)[C@H]1N1Cc2ncc(-c3nnc(C(F)F)o3)cc2C1=O [Example 500, N-((1R,2S)-2-(3-(5-(difluoro-methyl)-1,3,4-oxadiazol-2-yl)-5-oxo-5,7-dihydro-6H-pyrrolo[3,4-b]pyridin-6-yl)-3,3-difluoro-cyclohexyl)-2,2-difluoro-propanamide] | 99
O=C1c2cc(-c3nnc(C(F)F)o3)ccc2CN1N1CCOCC1c1ccccc1 (stereo not shown) [Example 501, 6-(5-(difluoro-methyl)-1,3,4-oxadiazol-2-yl)-2-(3-phenyl-morpholin-4-yl) isoindolin-1-one] | 98
O=C1c2cc(-c3nnc(C(F)F)o3)cnc2CN1[C@@H]1CCCC[C@H]1n1cnc2ccccc21 [Example 502, 6-((1R,2R)-2-(1H-benzimidazol-1-yl)cyclohexyl)-3-(5-(difluoromethyl)-1,3,4-oxadiazol-2-yl)-6,7-dihydro-5H-pyrrolo[3,4-b]pyridin-5-one] | 100
Cc1nc2ccccc2n1[C@@H]1CCCC[C@H]1N1Cc2ncc(-c3nnc(C(F)F)o3)cc2C1=O [Example 503, 3-(5-(difluoromethyl)-1,3,4-oxadiazol-2-yl)-6-((1R,2R)-2-(2-methyl-1H-benzimidazol-1-yl)cyclohexyl)-6,7-dihydro-5H-pyrrolo[3,4-b]pyridin-5-one] | 99
